In US20040175691A1, “Use of the KCNQ2 and KCNQ3 genes for the discovery of agents useful in the treatment of neurological disorders” (priority 1998, published 2004):

Key:
KCNQ2 = KCNQ2 (Homo sapiens, UniProt O43526, DEL417-446); assay: Perforated-patch voltage clamp of HEK 293E cells stably expressing hKCNQ2; assay type: cell-based; set-up: Full-length hKCNQ2 cDNAs were amplified from adult human brain cDNA; expressed in transfected cells; host or cells: 293 EBNA (HEK 293E) cells, episomal plasmid pm3AR-hKCNQ2-1, hygromycin B selection; settings: FIG. 5 (0.3 uM)
Description: To determine whether the hygromycin B resistant HEK 293E cells express functional hKCNQ2 channels, the presence of potassium currents was evaluated using the perforated-patch voltage-clamp technique. Briefly, cells growing on plastic Petri dishes or poly-D-lysine-coated glass coverslips in DMEM (with 10% FBS and 250 ug/ml hygromycin B) at 37° C. and 5% CO2 were removed from the incubator and allowed to reach room temperature. Growth medium was replaced with a bathing solution containing, in mM: 140 NaCl, 3 KC1, 2.5 CaCl2, 1 MgCl2, 10 HEPES, 10 dextrose, pH adjusted to 7.2-7.4 with NaOH and osmolarity adjusted to 305-310 mosm with water. […]
Stock solution(s) of test compound(s) was (were) prepared immediately before use. […] Generally, the stock solution is about 0.1 mM to about 100 mM in DMSO and the aliquot is about 5 to about 100 uL, but it is understood that the concentration and volumes are not limited to these ranges for one skilled in the art can readily determine the appropriate concentrations and volumes dependening on the activity of the compound in the assay and the sensitivity of detection. […]

[1] = mammalian CNS; cited from earlier work
rat hippocampal neurons = rat hippocampal neurons (Lampe & Brown 1991); cited from earlier work
KQT1 = target: T1, KQT1 (Homo sapiens, UniProt P51787); assay: Blockade of cloned KQT1 channel in oocytes; assay type: cell-based
T1 construct: expressed in transfected cells; host or cells: oocytes (Xenopus)
T1 sequence (P51787 whole entry): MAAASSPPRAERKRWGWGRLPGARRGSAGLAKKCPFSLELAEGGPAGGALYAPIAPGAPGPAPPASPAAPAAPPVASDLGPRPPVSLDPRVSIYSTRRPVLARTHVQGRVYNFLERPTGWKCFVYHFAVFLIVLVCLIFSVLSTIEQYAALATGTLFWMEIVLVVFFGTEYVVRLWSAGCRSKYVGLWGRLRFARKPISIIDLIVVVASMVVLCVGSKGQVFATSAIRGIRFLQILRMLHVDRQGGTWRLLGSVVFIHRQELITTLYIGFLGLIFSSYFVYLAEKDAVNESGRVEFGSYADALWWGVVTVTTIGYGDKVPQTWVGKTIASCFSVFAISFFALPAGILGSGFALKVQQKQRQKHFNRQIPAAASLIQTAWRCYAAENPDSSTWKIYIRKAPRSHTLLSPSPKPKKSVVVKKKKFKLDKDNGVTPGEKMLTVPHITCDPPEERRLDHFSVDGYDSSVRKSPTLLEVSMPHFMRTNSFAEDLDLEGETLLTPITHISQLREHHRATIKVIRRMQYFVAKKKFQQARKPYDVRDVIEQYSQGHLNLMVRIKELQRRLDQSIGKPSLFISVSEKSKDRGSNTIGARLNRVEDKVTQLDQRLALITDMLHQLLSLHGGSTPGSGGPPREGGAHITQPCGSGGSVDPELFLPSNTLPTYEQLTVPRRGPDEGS

Block of hKCNQ2 current (KCNQ2) | IC50 (KQT1) | Compound | K+-stimulated release of acetylcholine, dopamine and glutamate [1] | Spike frequency adaptation (rat hippocampal neurons)
reversibly blocks hKCNQ2 |  | O=C1c2ccccc2C(Cc2ccncc2)(Cc2ccncc2)c2ccccc21 [XE991, 10,10-bis(4-pyridinylmethyl)-9(10H)-anthracenone] |  | 
 | 8.9 ± 0.9 µM | O=C1N(c2ccccc2)c2ccccc2C1(Cc1ccncc1)Cc1ccncc1 [Linopirdine, 3,3-bis(4-pyridinylmethyl)-1-phenylindolin-2-one] | enhance K^+-stimulated release of acetylcholine, dopamine and glutamate | reduced spike frequency adaptation
